In brackets after ≈: the same amount, converted by molar mass. Like-named read-outs stand apart in the source and are kept apart here.
Tests used:
[1] = tested on: Klebsiella pneumoniae ATCC 700603; assay: MIC, reference strains of aerobic bacteria; assay type: cell-based; conditions: ATCC700603
[2] = cited from earlier work
[3] = tested on: Enterococcus faecalis ATCC 29212; assay: MIC, reference strains of aerobic bacteria; assay type: cell-based; conditions: ATCC29212
[4] = tested on: Streptococcus pseudoporcinus ATCC BAA-1381; assay: MIC, reference strains of aerobic bacteria; assay type: cell-based; conditions: ATCCBAA1381
[5] = tested on: Proteus mirabilis NBRC 3849 (NCTC 6197); assay: MIC, reference strains of aerobic bacteria; assay type: cell-based
[6] = tested on: Acinetobacter calcoaceticus NBRC12552 (ATCC 14987); assay: MIC, reference strains of aerobic bacteria; assay type: cell-based
[7] = tested on: Acinetobacter baumannii ATCC 19606; assay: MIC, reference strains of aerobic bacteria; assay type: cell-based; conditions: ATCC19606
[8] = tested on: Streptococcus pyogenes ATCC 12344; assay: MIC, reference strains of aerobic bacteria; assay type: cell-based; conditions: ATCC12344
[9] = tested on: Proteus vulgaris ATCC 6380; assay: MIC, reference strains of aerobic bacteria; assay type: cell-based; conditions: ATCC6380
[10] = tested on: Escherichia coli ATCC 25922; assay: MIC, reference strains of aerobic bacteria; assay type: cell-based; conditions: ATCC25922
[11] = tested on: Staphylococcus aureus ATCC 6538P/methicillin-sensitive; assay: MIC, reference strains of aerobic bacteria; assay type: cell-based; conditions: ATCC6538P
[12] = tested on: Streptococcus mutans GTC218; assay: MIC, reference strains of aerobic bacteria; assay type: cell-based
[13] = tested on: Serratia marcescens NBRC 12648 (ATCC 14756); assay: MIC, reference strains of aerobic bacteria; assay type: cell-based
[14] = tested on: Enterococcus faecium NCTC 12204; assay: MIC, reference strains of aerobic bacteria; assay type: cell-based; conditions: NCTC12204
[15] = tested on: Stenotrophomonas maltophilia KUB3619; assay: MIC, reference strains of aerobic bacteria; assay type: cell-based
[16] = tested on: Micrococcus luteus ATCC 9341; assay: MIC, reference strains of aerobic bacteria; assay type: cell-based; conditions: ATCC9341
[17] = tested on: Staphylococcus lugdunensis KUB4804; assay: MIC, reference strains of aerobic bacteria; assay type: cell-based
[18] = tested on: Staphylococcus aureus KUB4690/methicillin-resistant; assay: MIC, reference strains of aerobic bacteria; assay type: cell-based
[19] = tested on: Citrobacter freundii ATCC 8090; assay: MIC, reference strains of aerobic bacteria; assay type: cell-based; conditions: ATCC8090
[20] = tested on: Staphylococcus saprophyticus KUB4845; assay: MIC, reference strains of aerobic bacteria; assay type: cell-based
[21] = tested on: Pseudomonas aeruginosa ATCC 27853; assay: MIC, reference strains of aerobic bacteria; assay type: cell-based; conditions: ATCC27853
[22] = tested on: E. coli CDC-149 (NDM-7), PBP3 mutations; assay: MIC, broth microdilution; assay type: cell-based; conditions: Escherichia coli
[23] = tested on: E. coli CDC-150 (NDM-5), PBP3 mutations; assay: MIC, broth microdilution; assay type: cell-based; conditions: Escherichia coli, fixed BLI concentration (μg/mL) in parentheses in label
[24] = tested on: E. coli CDC-435 (NDM-1), PBP3 mutations; assay: MIC, broth microdilution; assay type: cell-based; conditions: Escherichia coli, fixed BLI concentration (μg/mL) in parentheses in label
[25] = tested on: E. coli CDC-151 (NDM-5), PBP3 mutations; assay: MIC, broth microdilution; assay type: cell-based; conditions: Escherichia coli, fixed BLI concentration (μg/mL) in parentheses in label
[26] = tested on: MEM-nonsusceptible Enterobacterales with serine-carbapenemases; assay: MIC, broth microdilution; assay type: cell-based; conditions: for CLSI MIC interpretation I (intermediate) / CLSI MIC interpretation R (resistant) / CLSI MIC interpretation S (susceptible): CLSI breakpoints, marked c: breakpoints for β-lactam alone; for MIC50 / MIC90: fixed concentration (μg/mL) in label
[27] = tested on: 96 P. aeruginosa; assay: MIC, broth microdilution; assay type: cell-based, Pseudomonas aeruginosa
[28] = tested on: MEM-nonsusceptible Enterobacterales; assay: MIC, broth microdilution; assay type: cell-based; conditions: for CLSI MIC interpretation I (intermediate) / CLSI MIC interpretation R (resistant) / CLSI MIC interpretation S (susceptible): CLSI breakpoints, marked c: breakpoints for β-lactam alone; for MIC50 / MIC90: fixed concentration (μg/mL) in label
[29] = tested on: E. coli CDC-162 (NDM-7), PBP3 mutations; assay: MIC, broth microdilution; assay type: cell-based; conditions: Escherichia coli
[30] = tested on: MBL-producing isolates (Enterobacterales); assay: MIC, broth microdilution; assay type: cell-based; conditions: for MIC50 / MIC90: fixed concentration (μg/mL) in label; for MIC50: read-out: MIC50; for MIC90: read-out: MIC90
[31] = tested on: serine-carbapenemase-producing isolates (Enterobacterales); assay: MIC, broth microdilution; assay type: cell-based; conditions: for MIC50 / MIC90: fixed concentration (μg/mL) in label
[32] = MEM-nonsusceptible Enterobacterales with serine-carbapenemases (42), CDC AR Bank
[33] = MEM-nonsusceptible Enterobacterales with serine-carbapenemases (58), tigecycline: FDA breakpoints
[34] = Pseudomonas aeruginosa (96), CLSI breakpoints, marked c: breakpoints for β-lactam alone
[35] = MEM-nonsusceptible Enterobacterales (92), CDC AR Bank
[36] = MEM-nonsusceptible Enterobacterales (127), cefiderocol 126 isolates, tigecycline: FDA breakpoints
[37] = Enterobacterales with metallo-carbapenemases (47), CDC AR Bank, CLSI breakpoints, marked c: breakpoints for β-lactam alone
[38] = Enterobacterales with metallo-carbapenemases (47), CDC AR Bank
[39] = Enterobacterales with metallo-carbapenemases (74), cefiderocol 73 isolates, CLSI breakpoints, marked c: breakpoints for β-lactam alone, tigecycline: FDA breakpoints
[40] = Enterobacterales with metallo-carbapenemases (74), cefiderocol 73 isolates
[41] = Enterobacterales with serine-carbapenemases (61), CDC AR Bank, CLSI breakpoints, marked c: breakpoints for β-lactam alone
[42] = Enterobacterales with serine-carbapenemases (61), CDC AR Bank
[43] = Enterobacterales with serine-carbapenemases (80), CLSI breakpoints, marked c: breakpoints for β-lactam alone, tigecycline: FDA breakpoints

SMILES: N[C@@H](C(=O)N1CC(Oc2ccc3c(c2C(=O)O)OB(O)CC3)C1)c1c[nH]cn1 [KSP-1007, 7-({1-[(2R)-2-amino-2-(1H-imidazol-4-yl)acetyl]azetidin-3-yl}oxy)-2-hydroxy-3,4-dihydro-2H-1,2-benzoxaborinine-8-carboxylic acid]
- MIC [1]: > 128 µg/mL
- human plasma protein binding rate [2]: about 75%
- MIC [3]: 64 µg/mL (≈ 166 µM)
- MIC [4]: 1 µg/mL (≈ 2.59 µM)
- MIC [5]: > 128 µg/mL
- MIC [6]: > 128 µg/mL
- MIC [7]: > 128 µg/mL
- MIC [8]: 4 µg/mL (≈ 10.4 µM)
- MIC [9]: > 128 µg/mL
- MIC [10]: 128 µg/mL (≈ 331 µM)
- MIC [11]: 8 µg/mL (≈ 20.7 µM)
- MIC [12]: 8 µg/mL (≈ 20.7 µM)
- MIC [13]: > 128 µg/mL
- MIC [14]: > 128 µg/mL
- MIC [15]: > 128 µg/mL
- MIC [16]: 128 µg/mL (≈ 331 µM)
- MIC [17]: 4 µg/mL (≈ 10.4 µM)
- MIC [18]: > 128 µg/mL
- MIC [19]: 128 µg/mL (≈ 331 µM)
- MIC [20]: 4 µg/mL (≈ 10.4 µM)
- MIC [21]: > 128 µg/mL

SMILES: C[C@@H](O)[C@H]1C(=O)N2C(C(=O)O)=C(S[C@@H]3CN[C@H](C(=O)N(C)C)C3)[C@H](C)[C@H]12 [MEM, meropenem]
- MIC [1]: ≤ 0.03 µg/mL
- human protein binding [2]: 2%
- MIC [3]: 1 µg/mL (≈ 2.61 µM)
- MIC [22]: 8 µg/mL (≈ 20.9 µM)
- MIC [23]: > 32 µg/mL
- MIC [4]: ≤ 0.03 µg/mL
- MIC [5]: ≤ 0.03 µg/mL
- MIC [24]: 32 µg/mL (≈ 83.4 µM)
- MIC [6]: 0.12 µg/mL (≈ 0.313 µM)
- MIC [25]: 8 µg/mL (≈ 20.9 µM)
- MIC [7]: 0.5 µg/mL (≈ 1.3 µM)
- MIC [8]: ≤ 0.03 µg/mL
- MIC [9]: ≤ 0.03 µg/mL
- MIC [10]: ≤ 0.03 µg/mL
- MIC [11]: 0.06 µg/mL (≈ 0.156 µM)
- MIC [12]: ≤ 0.03 µg/mL
- MIC [13]: ≤ 0.03 µg/mL
- MIC [14]: 32 µg/mL (≈ 83.4 µM)
- CLSI MIC interpretation I (intermediate) [26, 32]: 16.7%
- CLSI MIC interpretation R (resistant) [26, 32]: 83.3%
- CLSI MIC interpretation S (susceptible) [26, 32]: 0%
- MIC50 [26, 32]: 8 µg/mL (≈ 20.9 µM)
- MIC90 [26, 32]: 32 µg/mL (≈ 83.4 µM)
- CLSI MIC interpretation I (intermediate) [26, 33]: 15.5%
- CLSI MIC interpretation R (resistant) [26, 33]: 84.5%
- CLSI MIC interpretation S (susceptible) [26, 33]: 0%
- MIC50 ([26]; MEM-nonsusceptible Enterobacterales with serine-carbapenemases (58), read-out: MIC50): 8 µg/mL (≈ 20.9 µM)
- MIC90 ([26]; MEM-nonsusceptible Enterobacterales with serine-carbapenemases (58), read-out: MIC90): 32 µg/mL (≈ 83.4 µM)
- MIC [15]: > 32 µg/mL
- CLSI MIC interpretation I (intermediate) [27, 34]: 11.5%
- CLSI MIC interpretation R (resistant) [27, 34]: 67.7%
- CLSI MIC interpretation S (susceptible) [27, 34]: 20.8%
- MIC50 ([27]; Pseudomonas aeruginosa (96), fixed concentration (μg/mL) in label): 16 µg/mL (≈ 41.7 µM)
- MIC50 ([27]; Pseudomonas aeruginosa, read-out: MIC50): 16 µg/mL (≈ 41.7 µM)
- MIC [16]: 0.06 µg/mL (≈ 0.156 µM)
- MIC [17]: 0.12 µg/mL (≈ 0.313 µM)
- CLSI MIC interpretation I (intermediate) [28, 35]: 16.3%
- CLSI MIC interpretation R (resistant) [28, 35]: 83.7%
- CLSI MIC interpretation S (susceptible) [28, 35]: 0%
- MIC50 [28, 35]: 8 µg/mL (≈ 20.9 µM)
- MIC90 [28, 35]: >32 µg/mL
- CLSI MIC interpretation I (intermediate) [28, 36]: 18.1%
- CLSI MIC interpretation R (resistant) [28, 36]: 81.9%
- CLSI MIC interpretation S (susceptible) [28, 36]: 0%
- MIC50 ([28]; MEM-nonsusceptible Enterobacterales (127), cefiderocol 126 isolates, read-out: MIC50): 8 µg/mL (≈ 20.9 µM)
- MIC90 ([28]; MEM-nonsusceptible Enterobacterales (127), cefiderocol 126 isolates, read-out: MIC90): > 32 µg/mL
- MIC [29]: 32 µg/mL (≈ 83.4 µM)
- MIC [18]: 32 µg/mL (≈ 83.4 µM)
- MIC [19]: ≤ 0.03 µg/mL
- MIC [20]: 0.12 µg/mL (≈ 0.313 µM)
- CLSI MIC interpretation I (intermediate) [30, 37]: 10.6%
- CLSI MIC interpretation R (resistant) [30, 37]: 76.6%
- MIC50 [30, 38]: 16 µg/mL (≈ 41.7 µM)
- MIC90 [30, 38]: > 32 µg/mL
- CLSI MIC interpretation I (intermediate) [30, 39]: 9.5%
- CLSI MIC interpretation R (resistant) [30, 39]: 64.9%
- CLSI MIC interpretation S (susceptible) [30, 39]: 25.7%
- MIC50 [30, 40]: 8 µg/mL (≈ 20.9 µM)
- MIC90 [30, 40]: > 32 µg/mL
- CLSI MIC interpretation R (resistant) [31, 41]: 57.4%
- CLSI MIC interpretation S (susceptible) [31, 41]: 31.1%
- MIC50 [31, 42]: 4 µg/mL (≈ 10.4 µM)
- MIC90 [31, 42]: 32 µg/mL (≈ 83.4 µM)
- CLSI MIC interpretation I (intermediate) [31, 43]: 11.3%
- CLSI MIC interpretation R (resistant) [31, 43]: 61.3%
- CLSI MIC interpretation S (susceptible) [31, 43]: 27.5%
- MIC50 ([31]; Enterobacterales with serine-carbapenemases (80), read-out: MIC50): 4 µg/mL (≈ 10.4 µM)
- MIC90 ([31]; Enterobacterales with serine-carbapenemases (80), read-out: MIC90): 32 µg/mL (≈ 83.4 µM)
- MIC [21]: 0.25 µg/mL (≈ 0.652 µM)

Source: PMC11620503 (Antimicrobial Agents and Chemotherapy, 2024)
